This data set is described as follows: in vitro. The following applies: human, hela cells, % viability.

In the case of `Cc1ccccc1C(=O)Nc1cccc(NC(=O)c2ccc(-c3cc4ccccc4oc3=O)cc2)c1` [CBK267256], the viability at 28.5 h, 10 µM worked out at 118%.
In the case of `Cc1nc2ccccn2c1-c1csc(Nc2ccc(C(=O)O)cc2)n1` [CBK261634B], the viability at 28.5 h, 10 µM was 74.4%.
The same measure, in the same setting: for `Cc1cc(C(=O)N2CCC(c3nc(C)n4c(C)csc34)CC2)on1` [CBK285247] the value was 99.3%; for `Cn1cc(CCC(=O)NC(Cc2ccncc2)[C@H]2C[C@H](O)C2)cn1` (stereo partly drawn) [CBK307292], 82.4%.
Same read-out and setting: for `CCOC(=O)c1ccc(NCc2c(O)ccc3oc4c(c23)CCCC4)cc1` [CBK160394] the value was 97.7%.
For the compound `CC(c1ccc2c(c1)OCO2)c1cc2c(cc1OCCO)OCO2` (stereo not drawn) [CBK200110], the viability at 28.5 h, 10 µM is 98.9%.
With `COc1ccc(Cc2nc(CCNC(C)=O)n(CC(F)(F)F)n2)cc1` [CBK307287], the viability at 28.5 h, 10 µM was determined as 77.8%.
The same measure, in the same setting: for `CN(C)S(=O)(=O)c1ccc2[nH]cc(CCN)c2c1` [CBK268522C] the value was 99.7%; for `Brc1ccc(OCCCCCCN2CCCCC2)cc1` [CBK261784], 97%.
The same measure, in the same setting: then `CC(NS(=O)(=O)c1ccc(CCC(=O)O)cc1)c1ccccc1` (stereo not drawn) [CBK267058], with 88.1%; and `Fc1ccc(C2=Nn3cnnc3SC2)c(F)c1` [CBK288078], with 97%.
In the case of `CCc1nc2ccc(C(=O)N3CCN(c4ccccc4)CC3)cn2c1N(C)C(=O)Nc1ccccc1OC` [CBK145886], the viability at 28.5 h, 10 µM came to 96.2%.
`CCOC(=O)c1cnc2ccc(F)cc2c1NCCN(C)C` [CBK265751]: the viability at 28.5 h, 10 µM was determined as 91.7%.
Still for that read-out and setting: for `Cn1ccnc1Sc1cc(C(F)(F)F)ccn1` [CBK093798] the value was 80.5%.
On the same count and under the same terms, for `Cc1cc(C)n(CC(O)CN(Cc2ccccc2)Cc2ccco2)n1` (stereo not drawn) [CBK282957] the value was 95.7%; for `Cc1nn(C)c(N2CCNCC2)c1NC(=O)c1cccn1C` [CBK050309T], 94.8%; for `O=C1CSC2(C(=O)Nc3ccccc32)N1c1cccc(F)c1` (stereo not drawn) [CBK093488], 99.2%.
Same read-out and setting: for `Nc1ncc(CN(Cc2ccco2)CC(O)Cn2c3ccccc3c3ccccc32)cn1` (stereo not drawn) [CBK286462] the value was 88.6%; for `Cc1cc(C)c(S(=O)(=O)Nc2nnc(C(C)C)s2)c(C)c1` [CBK045516], 102%.
Consider `CCSc1nc(N)cc(O)n1` [CBK086474], for which the viability at 28.5 h, 10 µM came to 90.5%.
For `Cc1ccn(CCNC(=O)c2ccc3c(C)c(C)[nH]c3c2)n1` [CBK282519], the viability at 28.5 h, 10 µM stood at 101%.
Still for that read-out and setting: for `O=c1cc2ncc(-c3ccncc3)cn2[nH]1` [CBK011300] the value was 98.3%; for `CCOC(=O)c1cnc(SC)nc1NCCc1c[nH]cn1` [CBK086623], 92.6%; for `COc1ccc([C@@]23CC[C@@H](NC(=O)Nc4ncc(Cl)s4)C[C@@H]2N(C)CC3)cc1OC` [CBK051620T], 96.1%.
Still for that read-out and setting: for `CC1=NN(c2ccc([N+](=O)[O-])cc2)C(=O)/C1=C\NCCN1CCN(C(=O)c2ccc(Br)cc2)CC1` [CBK261788] the value was 110%; for `COc1cccc(C(=O)N2CCCC(c3cc4ncccc4[nH]3)C2)c1` (stereo not drawn) [CBK283416], 104%; for `CCCNc1nccnc1-c1cccc(CO)c1` [CBK088897], 91.5%.
Same read-out and setting: for `Nc1ccc(-c2nc(-c3ccccc3)c3cc(-c4ccc5nc(-c6ccc(N)cc6)nc(-c6ccccc6)c5c4)ccc3n2)cc1` [CBK261152] the value was 107%.
In the case of `C[S+]([O-])c1nc2ccccc2s1` (stereo not drawn) [CBK028233], the viability at 28.5 h, 10 µM worked out at 93.5%.
For `Oc1ccc(CN2CCN(c3cccc(Cl)c3)CC2)cc1` [CBK261528], where the note is “bulk resorufin, single well”, the viability at 28.5 h, 10 µM stood at 109%.
For `O=C(NCCc1nc2ccccc2[nH]1)c1cccs1` [CBK020529], the viability at 28.5 h, 10 µM is 99.4%.
On the same count and under the same terms, then `O=C(CSCc1ccc(Cl)cc1Cl)Nc1cccc(O)c1` [CBK131702], with 110%; and `O=C(COc1ccccc1)Nc1ccccc1CO` [CBK263596], with 97.9%.
On the same count and under the same terms, for `CCOC(=O)C(C)NC(=O)c1cc2ccc(F)cc2[nH]1` (stereo not drawn) [CBK283214] the value was 107%.
Same read-out and setting: then `CC(=O)Nc1ccc(Nc2nc(Br)cn3ccnc23)cc1` [CBK066338], with 104%; and `O=c1[nH]c2ncc(-c3cccc(-c4ccccc4)c3)nc2n1Cc1ccccc1` [CBK064252], with 96.1%.
`O=C(CN1C(=O)N2CCCN=C2c2ccc(Cl)cc21)NC1CC1` [CBK284388]: the viability at 28.5 h, 10 µM was determined as 89%.
Consider `CC(C)C[C@@H]1N[C@H](C(=O)N2CCN(c3ncccn3)CC2)Cc2cn(C)c3cccc1c23` [CBK289421], for which the viability at 28.5 h, 10 µM is 84.2%.
On the same count and under the same terms, then `O=C(O)CCC(=O)N(Cc1ccco1)C1CC(=O)N(c2ccc(F)cc2)C1=O` (stereo not drawn) [CBK287059], with 92.1%; and `CN1CCN(c2cc(-c3cccc(CO)c3)nc3ccnn23)CC1` [CBK037099], with 98.1%.
For `O=C(Nc1cccnc1)c1ccc(NC(=O)C2OCCc3ccccc32)cc1` (stereo not drawn) [CBK269963], the viability at 28.5 h, 10 µM amounted to 86.6%.
Regarding `Cn1cc(-c2nccnc2OCCOc2ccccc2)cn1` [CBK107080], the viability at 28.5 h, 10 µM was 94.9%.
The same measure, in the same setting: for `CC(C)c1ccc(N2C(=O)[C@@H]3C[C@@H](NC(=O)c4cccn4C)CCN3C2=O)cc1` [CBK289547] the value was 92.3%; for `CC1(C)CC(NC(=O)c2cccc([N+](=O)[O-])c2)CC(C)(C)N1` [CBK262952C], 99.8%; for `CCC1CCC2(CC1)NC(=O)N(CC(=O)Nc1nccs1)C2=O` (stereo not drawn) [CBK305936], 95.9%.
On to `CC(=O)C1(c2ccccc2)CCN(C(=O)CNS(=O)(=O)c2ccc(C)cc2)CC1` [CBK091328], for which, where the note is “bulk resorufin, single well”, the viability at 28.5 h, 10 µM came to 92.5%.
On to `CCOc1ccc(NC(=O)NC(CC)c2cnn(C)c2)cc1Cl` (stereo not drawn) [CBK307262], for which the viability at 28.5 h, 10 µM was determined as 107%.
Same read-out and setting: then `O=C(Nc1ccccn1)c1cc(O)c(OCc2ccccc2)cn1` [CBK287989], with 89.5%.
As to `CC1=CCC2C(=O)N(c3ccccc3)C(=O)C2C1` (stereo not drawn) [CBK086490], the viability at 28.5 h, 10 µM was found to be 84.1%.
The same measure, in the same setting: then `Cn1c(SCC(=O)c2ccccc2)nc2ccccc2c1=O` [CBK055260], with 87.6%.
Same read-out and setting: then `COc1cccc(C(=O)N2CCN(C)C(=O)C2Cc2ccccc2-c2ccccc2)c1OC` (stereo not drawn) [CBK285828], with 109%; and `O=C(NC1CCCc2c1cnn2-c1ccc(F)cc1)C1CC1` (stereo not drawn) [CBK283928], with 111%; and `Cn1c(=O)c2c(nc(CN3CCOCC3)n2CCc2ccccc2)n(C)c1=O` [CBK269264], with 89.3%.
With `Nc1nc(=O)[nH]c2c1ncn2[C@H]1C[C@@H](O)[C@@H](CO)O1` [CBK201323], the viability at 28.5 h, 10 µM came to 86%.
Still for that read-out and setting: for `Cn1c2ccccc2c2nnc(SCCCC(=O)c3ccc(F)cc3)nc21` [CBK268830] the value was 92.8%; for `OC1CCCn2c1nc1cc(Cl)ccc12` (stereo not drawn) [CBK113625], 72.4%.
Same read-out and setting: for `CC(NC(=O)CSCc1ccco1)c1ccccc1` (stereo not drawn) [CBK283237] the value was 100%.
Regarding `CCCNC(=O)N1CCC(n2c(C)nc3cccnc32)CC1` [CBK282292], the viability at 28.5 h, 10 µM was determined as 88.9%.
In the case of `CC1(C(=O)NC2CCN(Cc3cccc(F)c3)CC2)CCCO1` (stereo not drawn) [CBK282658], the viability at 28.5 h, 10 µM was determined as 91.6%.
Turning to `Cc1cc(C(=O)N(CCC#N)Cc2cccs2)no1` [CBK057316], the viability at 28.5 h, 10 µM is 112%.
The same measure, in the same setting: for `CCOC(=O)CSc1nc2ccccc2c(=O)n1Cc1ccccc1` [CBK054124] the value was 95.4%.
The same measure, in the same setting: for `Fc1cccc(-c2c[nH]nc2C2CCOCC2)c1` [CBK283465] the value was 91%; for `O=C1C2N=NN(Cc3ccccc3)C2C(=O)N1C1CCCCC1` (stereo not drawn) [CBK067389], 115%.
On the same count and under the same terms, for `Cc1nc(-c2nnc3ccc(Cl)nn23)c(Br)[nH]1` [CBK028706B] the value was 87.5%; for `Cc1cnc2[nH]c(C3CCN(C(=O)c4scnc4C)CC3)cc2c1` [CBK284753], 96.7%.
For `CCN(Cc1cnn(C)c1)[C@H]1CCO[C@@H](c2ccccc2-c2ccc(OC)cc2)C1` [CBK285854], the viability at 28.5 h, 10 µM came out at 98%.
Take `Cc1ccc2c(c1)cc(C)c1nn(CC(=O)NC(C)(C)C)c(=O)n12` [CBK283875]: the viability at 28.5 h, 10 µM was 87.5%.
The same measure, in the same setting: for `O=C(CC(C(=O)O)n1cccn1)c1ccc(Br)cc1` (stereo not drawn) [CBK269541] the value was 90.8%.
The same measure, in the same setting: then `N#CC(N)c1c(Cl)cccc1Cl` (stereo not drawn) [CBK008288C], with 103%; and `CN(C)CCN1CCN(c2cccc(-c3ccncc3)n2)CC1` [CBK037029], with 95.9%.
With `CCOC(=O)C1(Cc2cc(-c3ccc(F)cc3)no2)CCCNC1` (stereo not drawn) [CBK284579], the viability at 28.5 h, 10 µM was 84%.
On to `COc1ccc(-n2ncc3c2CC(C)(C)CC3NC(=O)C2CC2)cc1` (stereo not drawn) [CBK282337], for which the viability at 28.5 h, 10 µM was 91.1%.
On the same count and under the same terms, then `CSCCCNC(=O)c1cncc(-c2ccc(C(=O)N3CCOCC3)cc2)c1` [CBK158610], with 92.7%.
On the same count and under the same terms, for `CNc1nc(N(C)C)nc(-n2cnc(SCCOc3ccccc3C)n2)n1` [CBK288564] the value was 92.4%; for `O=C(Nc1ccc2n(c1=O)C[C@H]1C[C@@H]2CN(C(=O)Cc2cccs2)C1)c1ccco1` [CBK289204], 102%; for `COc1cc2c(cc1OC)CN(C(=O)N(CCN)CCC(C)c1ccccc1)CC2` (stereo not drawn) [CBK000612C], 80.9%.
Take `CC1=NN(c2ccc(Cl)c(Cl)c2)C(=O)C1` [CBK067761]: the viability at 28.5 h, 10 µM was determined as 100%.
`Cc1ccc(/C=N/NC(=O)C(C)Oc2ccccc2Br)o1` (stereo not drawn) [CBK262226]: the viability at 28.5 h, 10 µM turned out to be 103%.
On to `CN1CCN(C(=O)c2ccccc2N(Cc2ccccc2)S(C)(=O)=O)CC1` [CBK266267], for which the viability at 28.5 h, 10 µM is 101%.
Still for that read-out and setting: then `Cc1c(C(=O)NC(C)c2cc3ccccc3o2)cnn1C` (stereo not drawn) [CBK283074], with 99.3%.
Turning to `O=C(Nc1cccc2nsnc12)c1ccc(-c2ccc(Br)cc2)o1` [CBK263752], the viability at 28.5 h, 10 µM turned out to be 95.9%.

In general, viability refers to a read-out of living cells in per cent, often relative to untreated cells.

Values taken from PMC12040169 (PLOS Biology, 2025).
